# According to US7211587B2, “Quinoline derivatives and quinazoline derivatives having azolyl group” (Kirin Beer Kabushiki Kaisha, priority 2001, dated 2007):
# Molecular target: T1, human KDR (Homo sapiens, UniProt P35968)
# T1 construct: expressed in transfected cells; host or cells: NIH 3T3 cells (mouse fibroblasts) stably expressing human KDR
# Assay: Inhibitory activity against KDR phosphorylation by ELISA (VEGF-stimulated NIH 3T3 cells expressing human KDR)
# Type: cell-based
# Conditions: VEGF 100 ng/ml, compound 1 hr, read-out: IC50 (inhibition of KDR phosphorylation)
# Experimental: The harvested cells were inoculated into wells of a collagen-type one-coat 96-well flat-bottom plate, each containing the same medium, in an amount of 1.5×10^4 per well, followed by cultivation at 37° C. overnight. The medium was then replaced by a DMEM medium containing 0.1% fetal calf serum. A solution of a test compound in dimethyl sulfoxide was added to each well, and the cultivation was continued at 37° C. for additional one hr. A human recombinant vascular endothelial growth factor (hereinafter abbreviated to “VEGF”) was added to a final concentration of 100 ng/ml, and the stimulation of cells was carried out at 37° C. for 2 min. The medium was removed, the cells were washed with phosphate buffered saline (pH 7.4), and 50 μl of a solubilization buffer (20 mM HEPES (pH 7.4), 150 mM NaCl, 0.2% Triton X-100, 10% glycerol, 5 mM sodium orthovanadylate, 5 mM disodium ethylenediaminetetraacetate, and 2 mM Na4P2O7) was then added thereto. The mixture was shaken at 4° C. for 2 hr to prepare a cell extract.
# Separately, phosphate buffered saline (50 μl, pH 7.4) containing 5 μg/ml of an anti-phospho-tyrosine antibody (PY20; purchased from Transduction Laboratories) was added to a microplate for ELISA (Maxisorp; purchased from NUNC), followed by standing at 4° C. overnight to form a solid phase on the wells. After washing of the plate, 300 μl of a blocking solution was added, followed by standing at room temperature for 2 hr to perform blocking. After washing, the whole quantity of the cell extract was transferred to the wells, and the plate was then allowed to stand at 4° C. overnight. After washing, an anti-KDR antibody (purchased from Santa Cruz) was allowed to react at room temperature for one hr, and, after washing, a peroxidase-labeled anti-rabbit Ig antibody (purchased from Amersham) was allowed to react at room temperature for one hr. After washing, a chromophoric substrate for peroxidase (purchased from Sumitomo Bakelite Co., Ltd.) was added thereto to initiate a reaction. After a suitable level of color development, a reaction termination solution was added to stop the reaction, and the absorbance at 450 nm was measured with a microplate reader. The KDR phosphorylation activity for each well was determined by presuming the absorbance with the addition of VEGF and without the addition of the medicament to be 100% KDR phosphorylation activity and the absorbance without the addition of the medicament and VEGF to be 0% KDR phosphorylation activity.
# T1 sequence (P35968 20-1356): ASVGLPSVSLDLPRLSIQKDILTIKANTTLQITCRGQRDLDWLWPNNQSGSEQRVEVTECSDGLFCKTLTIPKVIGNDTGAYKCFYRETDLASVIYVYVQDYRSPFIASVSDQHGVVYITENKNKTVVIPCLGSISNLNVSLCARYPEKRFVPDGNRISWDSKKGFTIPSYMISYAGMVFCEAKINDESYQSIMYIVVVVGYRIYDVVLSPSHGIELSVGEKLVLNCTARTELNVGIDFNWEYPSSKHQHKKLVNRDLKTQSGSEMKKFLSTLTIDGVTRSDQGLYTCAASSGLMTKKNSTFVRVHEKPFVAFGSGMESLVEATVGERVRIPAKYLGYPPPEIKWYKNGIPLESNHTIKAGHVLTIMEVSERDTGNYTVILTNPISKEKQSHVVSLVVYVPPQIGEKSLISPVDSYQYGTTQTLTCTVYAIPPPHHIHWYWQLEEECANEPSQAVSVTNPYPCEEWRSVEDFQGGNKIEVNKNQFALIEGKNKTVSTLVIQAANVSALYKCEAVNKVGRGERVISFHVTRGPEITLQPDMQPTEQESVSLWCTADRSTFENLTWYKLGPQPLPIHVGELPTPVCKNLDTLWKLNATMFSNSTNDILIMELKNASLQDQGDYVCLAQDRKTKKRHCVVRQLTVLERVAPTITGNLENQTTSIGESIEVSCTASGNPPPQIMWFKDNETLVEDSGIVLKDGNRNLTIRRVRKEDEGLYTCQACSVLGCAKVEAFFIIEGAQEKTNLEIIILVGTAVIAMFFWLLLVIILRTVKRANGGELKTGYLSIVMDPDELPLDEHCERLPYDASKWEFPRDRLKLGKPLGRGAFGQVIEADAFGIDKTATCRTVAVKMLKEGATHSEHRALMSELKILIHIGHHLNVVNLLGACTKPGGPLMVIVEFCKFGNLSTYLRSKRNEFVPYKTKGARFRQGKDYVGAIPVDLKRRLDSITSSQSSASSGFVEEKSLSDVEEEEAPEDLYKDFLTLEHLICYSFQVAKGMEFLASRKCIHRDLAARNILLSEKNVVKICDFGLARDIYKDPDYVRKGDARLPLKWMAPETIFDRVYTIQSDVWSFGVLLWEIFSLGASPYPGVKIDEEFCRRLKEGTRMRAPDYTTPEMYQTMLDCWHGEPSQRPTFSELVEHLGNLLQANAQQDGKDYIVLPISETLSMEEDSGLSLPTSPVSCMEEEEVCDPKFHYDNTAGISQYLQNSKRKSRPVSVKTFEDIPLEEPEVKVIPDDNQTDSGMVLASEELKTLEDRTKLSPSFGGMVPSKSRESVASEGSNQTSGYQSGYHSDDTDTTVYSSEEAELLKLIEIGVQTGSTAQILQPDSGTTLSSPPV
row,IC50,Structure (SMILES)
1,2.3 nM,"COc1cc2nccc(Oc3ccc(NC(=O)Nc4ccon4)cc3Cl)c2cc1OC [Ex. 1, N-{3-Chloro-4-[(6,7-dimethoxy-4-quinolyl)oxy]phenyl}-N′-(3-isoxazolyl)urea]"
2,2 nM,"COc1cc2nccc(Oc3ccc(NC(=O)Nc4cc(C)no4)cc3Cl)c2cc1OC [Ex. 2, N-{3-Chloro-4-[(6,7-dimethoxy-4-quinolyl)oxy]phenyl}-N′-(3-methyl-5-isoxazolyl)urea]"
3,3.6 nM,"COc1cc2ncnc(Oc3ccc(NC(=O)Nc4cc(C)on4)cc3)c2cc1OC [Ex. 10, N-{4-[(6,7-Dimethoxy-4-quinazolinyl)oxy]-phenyl}-N′-(5-methyl-3-isoxazolyl)urea]"
4,9.3 nM,"COc1cc2ncnc(Oc3ccc(NC(=O)Nc4cc(C)no4)cc3)c2cc1OC [Ex. 11, N-{4-[(6,7-Dimethoxy-4-quinazolinyl)oxy]-phenyl}-N′-(3-methyl-5-isoxazolyl)urea]"
5,< 1 nM,"COc1cc2ncnc(Oc3ccc(NC(=O)Nc4cc(C)on4)c(Cl)c3)c2cc1OC [Ex. 12, N-{2-Chloro-4-[(6,7-dimethoxy-4-quinazolinyl)oxy]phenyl}-N′-(5-methyl-3-isoxazolyl)urea]"
6,2.2 nM,"COc1cc2ncnc(Oc3ccc(NC(=O)Nc4cc(C)no4)c(Cl)c3)c2cc1OC [Ex. 13, N-{2-Chloro-4-[(6,7-dimethoxy-4-quinazolinyl)oxy]phenyl}-N′-(3-methyl-5-isoxazolyl)urea]"
7,4.4 nM,"COc1cc2ncnc(Oc3ccc(NC(=O)Nc4cc(C)on4)cc3Cl)c2cc1OC [Ex. 14, N-{3-Chloro-4-[(6,7-dimethoxy-4-quinazolinyl)oxy]phenyl}-N′-(5-methyl-3-isoxazolyl)urea]"
8,13.4 nM,"COc1cc2ncnc(Oc3ccc(NC(=O)Nc4cc(C)no4)cc3Cl)c2cc1OC [Ex. 15, N-{3-Chloro-4-[(6,7-dimethoxy-4-quinazolinyl)oxy]phenyl}-N′-(3-methyl-5-isoxazolyl)urea]"
9,54.9 nM,"COc1cc2ncnc(Oc3ccc(NC(=O)Nc4cc(C)ns4)cc3)c2cc1OC [Ex. 16, N-{4-[(6,7-Dimethoxy-4-quinazolinyl)oxy]-phenyl}-N′-(3-methyl-5-isothiazolyl)urea]"
10,4.9 nM,"COc1cc2ncnc(Oc3ccc(NC(=O)Nc4cc(C)ns4)c(Cl)c3)c2cc1OC [Ex. 17, N-{2-Chloro-4-[(6,7-dimethoxy-4-quinazolinyl)oxy]phenyl}-N′-(3-methyl-5-isothiazolyl)-urea]"
11,69.7 nM,"COc1cc2ncnc(Oc3ccc(NC(=O)Nc4cc(C)ns4)cc3Cl)c2cc1OC [Ex. 18, N-{3-Chloro-4-[(6,7-dimethoxy-4-quinazolinyl)oxy]phenyl}-N′-(3-methyl-5-isothiazolyl)-urea]"
12,17.5 nM,"COc1cc2nccc(Oc3ccc(NC(=O)Nc4ccn[nH]4)cc3Cl)c2cc1OC [Ex. 19, N-{3-Chloro-4-[(6,7-dimethoxy-4-quinolyl)oxy]phenyl}-N′-(1H-5-pyrazolyl)urea]"
13,4.2 nM,"COc1cc2nccc(Oc3ccc(NC(=O)Nc4ccn[nH]4)c(F)c3)c2cc1OC [Ex. 20, N-{4-[(6,7-Dimethoxy-4-quinolyl)oxy]-2-fluorophenyl}-N′-(1H-5-pyrazolyl)urea]"
14,5 nM,"COc1cc2nccc(Oc3ccc(NC(=O)Nc4nc(C)c(C)s4)c(C(F)(F)F)c3)c2cc1OC [Ex. 26, N-[4-[(6,7-Dimethoxy-4-quinolyl)oxy]-2-(trifluoromethyl)phenyl]-N′-(4,5-dimethyl-1,3-thiazol-2-yl)urea]"
15,28.6 nM,"COc1cc2nccc(Oc3ccc(NC(=O)Nc4nc(C(C)(C)C)cs4)c(F)c3)c2cc1OC [Ex. 30, N-[4-(Tert-butyl)-1,3-thiazol-2-yl]-N′-{4-[(6,7-dimethoxy-4-quinolyl)oxy]-2-fluorophenyl}urea]"
16,33.9 nM,"CCOC(=O)Cc1csc(NC(=O)Nc2ccc(Oc3ccnc4cc(OC)c(OC)cc34)cc2Cl)n1 [Ex. 31, Ethyl 2-{2-[({2-chloro-4-[(6,7-dimethoxy-4-quinolyl)oxy]anilino}carbonyl)amino]-1,3-thiazol-4-yl}acetate]"
17,3.7 nM,"COc1cc2nccc(Oc3ccc(NC(=O)Nc4ncc(Br)s4)c(Cl)c3)c2cc1OC [Ex. 32, N-(5-Bromo-1,3-thiazol-2-yl)-N′-{2-chloro-4-[(6,7-dimethoxy-4-quinolyl)oxy]phenyl}urea]"

row,IC50,Structure (SMILES)
1,21.1 nM,"COc1cc2nccc(Oc3ccc(NC(=O)Nc4nc(C(C)(C)C)cs4)c(Cl)c3)c2cc1OC [Ex. 33, N-[4-(Tert-butyl)-1,3-thiazol-2-yl]-N′-{2-chloro-4-[(6,7-dimethoxy-4-quinolyl)oxy]phenyl}urea]"
2,2.8 nM,"COc1cc2nccc(Oc3ccc(NC(=O)Nc4ncc(Cl)s4)c(Cl)c3)c2cc1OC [Ex. 34, N-{2-Chloro-4-[(6,7-dimethoxy-4-quinolyl)oxy]phenyl}-N′-(5-chloro-1,3-thiazol-2-yl)urea]"
3,1.9 nM,"COc1cc2nccc(Oc3ccc(NC(=O)Nc4ncc(Br)s4)c(F)c3)c2cc1OC [Ex. 35, N-(5-Bromo-1,3-thiazol-2-yl)-N′-{4-[(6,7-dimethoxy-4-quinolyl)oxy]-2-fluorophenyl}urea]"
4,1.2 nM,"COc1cc2nccc(Oc3ccc(NC(=O)Nc4nc(C)c(C(C)=O)s4)c(F)c3)c2cc1OC [Ex. 36, N-(5-Acetyl-4-methyl-1,3-thiazol-2-yl)-N′-{4-[(6,7-dimethoxy-4-quinolyl)oxy]-2-fluorophenyl}urea]"
5,1.9 nM,"COc1cc2nccc(Oc3ccc(NC(=O)Nc4ncc(Cl)s4)c(F)c3)c2cc1OC [Ex. 37, N-(5-Chloro-1,3-thiazol-2-yl)-N′-{4-[(6,7-dimethoxy-4-quinolyl)oxy]-2-fluorophenyl}urea]"
6,4.7 nM,"COc1cc2ncnc(Oc3ccc(NC(=O)Nc4nccs4)cc3)c2cc1OC [Ex. 42, N-{4-[(6,7-Dimethoxy-4-quinazolinyl)oxy]-phenyl}-N′-(1,3-thiazol-2-yl)urea]"
7,< 1 nM,"COc1cc2ncnc(Oc3ccc(NC(=O)Nc4ncc(C)s4)cc3)c2cc1OC [Ex. 43, N-{4-[(6,7-Dimethoxy-4-quinazolinyl)oxy]-phenyl}-N′-(5-methyl-1,3-thiazol-2-yl)urea]"
8,1.1 nM,"COc1cc2ncnc(Oc3ccc(NC(=O)Nc4nc(C)cs4)cc3)c2cc1OC [Ex. 44, N-{4-[(6,7-Dimethoxy-4-quinazolinyl)oxy]-phenyl}-N′-(4-methyl-1,3-thiazol-2-yl)urea]"
9,< 1 nM,"COc1cc2ncnc(Oc3ccc(NC(=O)Nc4nc(C)c(C)s4)cc3)c2cc1OC [Ex. 45, N-{4-[(6,7-Dimethoxy-4-quinazolinyl)oxy]-phenyl}-N′-(4,5-dimethyl-1,3-thiazol-2-yl)urea]"
10,7.4 nM,"COc1cc2ncnc(Oc3ccc(NC(=O)Nc4nccs4)cc3Cl)c2cc1OC [Ex. 46, N-{3-Chloro-4-[(6,7-dimethoxy-4-quinazolinyl)oxy]phenyl}-N′-(1,3-thiazol-2-yl)urea]"
11,2.8 nM,"COc1cc2ncnc(Oc3ccc(NC(=O)Nc4ncc(C)s4)cc3Cl)c2cc1OC [Ex. 47, N-{3-Chloro-4-[(6,7-dimethoxy-4-quinazolinyl)oxy]phenyl}-N′-(5-methyl-1,3-thiazol-2-yl)urea]"
12,4.4 nM,"COc1cc2ncnc(Oc3ccc(NC(=O)Nc4nc(C)cs4)cc3Cl)c2cc1OC [Ex. 48, N-{3-Chloro-4-[(6,7-dimethoxy-4-quinazolinyl)oxy]phenyl}-N′-(4-methyl-1,3-thiazol-2-yl)urea]"
13,3.1 nM,"COc1cc2ncnc(Oc3ccc(NC(=O)Nc4nc(C)c(C)s4)cc3Cl)c2cc1OC [Ex. 49, N-{3-Chloro-4-[(6,7-dimethoxy-4-quinazolinyl)oxy]phenyl}-N′-(4,5-dimethyl-1,3-thiazol-2-yl)urea]"
14,1.3 nM,"CCc1nnc(NC(=O)Nc2ccc(Oc3ccnc4cc(OC)c(OC)cc34)cc2)s1 [Ex. 59, N-{4-[(6,7-Dimethoxy-4-quinolyl)oxy]phenyl}-N′-(5-ethyl-1,3,4-thiadiazol-2-yl)urea]"
15,< 1 nM,"CCc1nnc(NC(=O)Nc2ccc(Oc3ccnc4cc(OC)c(OC)cc34)cc2C)s1 [Ex. 60, N-{4-[(6,7-Dimethoxy-4-quinolyl)oxy]-2-methylphenyl}-N′-(5-ethyl-1,3,4-thiadiazol-2-yl)urea]"
16,1.5 nM,"CCc1nnc(NC(=O)Nc2ccc(Oc3ccnc4cc(OC)c(OC)cc34)c(C)c2C)s1 [Ex. 62, N-{4-[(6,7-Dimethoxy-4-quinolyl)oxy]-2,3-dimethylphenyl}-N′-(5-ethyl-1,3,4-thiadiazol-2-yl)urea]"
17,< 1 nM,"CCc1nnc(NC(=O)Nc2ccc(Oc3ccnc4cc(OC)c(OC)cc34)cc2F)s1 [Ex. 63, N-{4-[(6,7-Dimethoxy-4-quinolyl)oxy]-2-fluorophenyl}-N′-(5-ethyl-1,3,4-thiadiazol-2-yl)urea]"
